Measured values reported in US20230072421A1, “TARGETED RADIOPHARMACEUTICALS FOR THE DIAGNOSIS AND TREATMENT OF PROSTATE CANCER” (Bayer AS, priority 2019, published 2023).

Columns and labels:
[1] = system: LNCaP human prostate cancer cells; assay: LNCaP xenograft efficacy study (T/C tumor area); format: in vivo, SCID mice; details: Example V; day 27 after start of therapy; once 750 kBq/kg
Outline: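 SCID mice with testosterone pellet bearing s.c. flank LNCaP xenografts (5×10^6 cells in Matrigel) were treated i.v. with a defined radioactive dose once tumors reached 35-50 mm^2 (n=10/group). Tumor area (caliper, longest diameter × perpendicular) measured 2-3× weekly; T/C ratio calculated from tumor areas when vehicle group closed.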

LNCaP cells = assay: Cell proliferation assay (CellTiter-Glo, 5-day exposure), LNCaP; format: cell-based, human; details: LNCaP, 1000 cells/well; Th-227 labelled at 375 kBq/nmol; 5-day exposure; mean of 1 to 6 experiments
Experimental: Inhibition of cell proliferation of Thorium-227 labeled PMSA SMOL ligands was tested different prostate cancer cell lines, namely 22Rv1, VCaP, C4-2 (all from ATCC, Manassas, Va., USA) and LNCaP (DMSZ, Braunschweig). Cells were seeded using the following conditions in 384 well plates (Corning) in 30 μl of growth media at 4000 cells/well for VCaP cells and 1000 cells/well for 22Rv1, C4-2 and LNCaP cells.
Cells were cultivated an incubator at 37° C. and 5% C02 over night. On the following days cells were treated in triplicates with serial dilutions of PSMA-SMOLs labeled with Th-227 at a specific activity of 375 kBq/nmol (RCP>70% as assessed by iTLC analysis; compounds where RCP was between 50-70% in individual experiments are marked with an * in the table) using a D300e Digital Dispenser (Tecan). In sister plates cell viability at treatment start (d=0) was determined using CellTiter-Glo® assay (CTG, Promega, Madison, Wis., USA), by adding 30 μl per well CTG solution, incubation for 10 min and reading of Luminescence in a PheraStarFSX instrument (BMG Labtech). After a 5-day exposure in the presenced of test compounds, cell viability of treated or untreated control cells was determined again using CellTiter-Glo® assay (Promega, Madison, Wis., USA). […] The DRC software is a Biobook Spreadsheet that was developed by Bayer AG and Bayer Business Services on the IDBS E-Workbook Suite platform (IDBS: ID Business Solutions Ltd., Guildford, UK).

VCaP cells = assay: Cell proliferation assay (CellTiter-Glo, 5-day exposure), VCaP; format: cell-based; details: 4000 cells/well, Th-227 labelled at 375 kBq/nmol, mean of 1 to 6 experiments
Outline: (§1)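 Growth inhibition by radiolabelled (Th-227) PSMA small-molecule ligands is measured as ATP luminescence after 5 days of treatment, referenced to a day-0 reading from sister plates. VCaP are seeded at 4000 cells/well, the remaining lines at 1000 cells/well.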

22Rv1 cells = assay: Cell proliferation assay (CellTiter-Glo, 5-day exposure), 22Rv1; format: cell-based; details: 22Rv1, 1000 cells/well, Th-227 labelled at 375 kBq/nmol, mean of 1 to 6 experiments
Outline: as §1

C4-2 cells = assay: Cell proliferation assay (CellTiter-Glo, 5-day exposure), C4-2; format: cell-based; details: C4-2, 1000 cells/well, Th-227 labelled at 375 kBq/nmol, mean of 1 to 6 experiments
Outline: as §1

[2] = biological target: T1, PSMA-expressing LNCaP cells (Homo sapiens, UniProt Q04609); assay: Internalization assay (membrane bound and internalized Th-227); format: cell-based; details: 10 nM radiolabeled compound, Th-227 at 375 kBq/nmol, triplicates
T1 construct: PSMA-expressing LNCaP cells; endogenous in cells; host or cells: LNCaP
Experimental: For internalization assays 24 well plates (#3526, Corning) were coated with 200 μl Poly-L-Lysine (0.1 mg/ml, #3438-100-01, Fa. Cultrex) per well for 2 h at 37° C. […] Cells were incubated at 37° C. and 5% CO2 over night. On the following day 400 μl of the media were removed and a total of 200 μl growth medium added supplemented with PSMA-SMOLs labeled with Th-227 at 375 kBq/nmol in triplicates. Radiochemical purity of the labeling was analyzed by instant thin layer chromatography and found to be above 70% for all compounds used. The final concentration of radiolabeled SMOLs was in the test wells was 10 nM. Cells were incubated for 30 min or 2 h. After the incubation time supernatants were taken off and cells washed with PBS. Thereafter cells were washed twice with 0.2 ml 50 mM Glycine-HCl buffer (#55097, Sigma Aldrich) and once with PBS and the washing solutions combined in counting vials (#TK75-018, Fa. Corning) and subjected to gamma counting (1470 Wizard automatic gamma counter, Wallac). The resulting counts were attributed to membrane bound radioactivity. Cells were then lysed with 500 μl 0.3N NaOH (#181691.1211, Fa. PanReac AppliChem ITW Reagents) followed by another wash with 500 μl PBS. The NaOH lysate as well as the final wash were combined in vials and subjected to gamma counting as described above. Measured radioactivity was attributed to internalized fraction. Results were calculated as fmol of Th-227 per/10^cells in the membrane bound and internalized fractions from triplicate values.

T1 sequence (Q04609 whole entry): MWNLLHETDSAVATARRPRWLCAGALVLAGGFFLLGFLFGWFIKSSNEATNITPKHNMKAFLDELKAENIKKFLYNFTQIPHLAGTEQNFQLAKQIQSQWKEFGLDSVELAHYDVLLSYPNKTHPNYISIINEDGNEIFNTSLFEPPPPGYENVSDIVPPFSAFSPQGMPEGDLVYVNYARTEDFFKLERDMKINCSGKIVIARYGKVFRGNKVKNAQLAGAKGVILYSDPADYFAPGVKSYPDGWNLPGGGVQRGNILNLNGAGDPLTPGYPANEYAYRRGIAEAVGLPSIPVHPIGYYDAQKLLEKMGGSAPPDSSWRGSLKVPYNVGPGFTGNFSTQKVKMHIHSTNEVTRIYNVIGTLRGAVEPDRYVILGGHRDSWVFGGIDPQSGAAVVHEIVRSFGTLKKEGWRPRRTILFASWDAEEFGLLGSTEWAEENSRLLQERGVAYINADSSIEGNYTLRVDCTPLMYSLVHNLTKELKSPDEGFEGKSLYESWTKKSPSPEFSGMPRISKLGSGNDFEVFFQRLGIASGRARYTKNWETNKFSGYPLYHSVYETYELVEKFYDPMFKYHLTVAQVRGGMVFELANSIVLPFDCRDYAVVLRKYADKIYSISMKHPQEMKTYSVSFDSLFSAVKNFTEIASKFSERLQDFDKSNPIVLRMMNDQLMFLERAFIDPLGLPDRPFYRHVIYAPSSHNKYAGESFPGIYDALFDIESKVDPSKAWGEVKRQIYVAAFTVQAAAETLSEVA

Compound	T/Carea [1]	Proliferation assay on cancer cell lines by TTCs Default Pivot #3 IC50 [kBq/mL] LnCap 1000cells 375kBq/nmol (mean) (LNCaP cells) [kBq/mL]	Proliferation assay on cancer cell lines by TTCs Default Pivot #3 IC50 [kBq/mL] VCap 4000cells 375kBq/nmol (mean) (VCaP cells) [kBq/mL]	Proliferation assay on cancer cell lines by TTCs Default Pivot #3 IC50 [kBq/mL] 22Rv1 1000cells 375kBq/nmol (mean) (22Rv1 cells) [kBq/mL]	Proliferation assay on cancer cell lines by TTCs Default Pivot #3 IC50 [kBq/mL] C4-2 1000cells 375kBq/nmol (mean) (C4-2 cells) [kBq/mL]	Internalized in LNCaP fmol/10^6 cells 30 min ([2]; 30 min incubation) [fmol/10^6 cells]	Membrane bound in LNCaP fmol/10^6 cells 30 min ([2]; 30 min incubation) [fmol/10^6 cells]	Internalized in LNCaP fmol/10^6 cells 2 h ([2]; 2 h incubation) [fmol/10^6 cells]	Membrane bound in LNCaP fmol/10^6 cells 2 h ([2]; 2 h incubation) [fmol/10^6 cells]
CC1=CC2=C3[O][227Th-4]45678([O]C9=C(C=C(C)N(CC(=O)O)C9=[O+]4)C(=O)NCCN(CCCN(CCNC(=O)C4=C([O]5)C(=[O+]6)N(CC(=O)O)C(C)=C4)CCNC(=O)C4=C([O]7)C(=[O+]8)N(CC(=O)NC[C@H]5CC[C@H](C(=O)N[C@@H](Cc6ccc7ccccc7n6)C(=O)NCCCC[C@H](NC(=O)N[C@@H](CCC(=O)O)C(=O)O)C(=O)O)CC5)C(C)=C4)CCNC2=O)[O+]=C3N1CC(=O)O [Example 17-C monomer-227Th]	0.36	0.04	1.48	0.86	0.5				
Cn1ccc2c(c1=O)[O][Th]13[O]c4c(ccn(C)c4=O)C(=O)NCCN(CCNC2=O)CC(Cc2ccc(NC(=O)CCC(=O)N[C@H](CCCNC(=N)N)C(=O)N[C@H](CCCNC(=N)N)C(=O)NC[C@H]4CC[C@H](C(=O)N[C@@H](Cc5ccc6ccccc6c5)C(=O)NCCCC[C@H](NC(=O)N[C@@H](CCC(=O)O)C(=O)O)C(=O)O)CC4)cc2)CN(CCNC(=O)c2ccn(C)c(=O)c2[O]1)CCNC(=O)c1ccn(C)c(=O)c1[O]3 (stereo partly shown) [Example 46-E-227Th]		0.18	1.37	0.68	0.95	34	63	104	234
